The record followed here is US20240317806A1, “TOPICAL PEPTIDE FORMULATION FOR THE TREATMENT OF SEXUAL DYSFUNCTION” (priority 2023, published 2024).

A short description of data set [1]: Physicochemical properties of PnPP-19 peptide (pI, pKa). The source says:
Aspects of the disclosure relate to pharmaceutical compositions comprising a PnPP-19 peptide (e.g., a peptide comprising or consisting of the amino acid sequence set forth in SEQ ID NO: 1). PnPP-19 is a synthetic, non-toxic peptide composed of 19 amino acid residues originating from the PnTx2-6 toxin, which was isolated from the venom of the Brazilian armadeira spider (Phoneutria nigriventer). In some embodiments, the isolated peptide (e.g., PnPP-19) is presented as a freeze-dried white powder (e.g., a solid physical form). In some embodiments, PnPP-19 is an amphipathic peptide with about 26% cationic amino acid residues. In some embodiments, PnPP-19 is positively charged at pH 7.

A short description of data set [2]: Release test in Franz vertical diffusion cells. The data set is classed as in vitro ADME. Conditions: peptide applied in saline or in the buffer of the formulations; after 6 hours (peak) and until 24 hours. Here is the method:
For the release test, a cellulose acetate membrane was used to generate the physical barrier between a donor compartment, where the formulations are added, and the recipient compartment, where the peptide is measured.
(§1) The assays were conducted in Franz vertical diffusion cells with 1.767 cm^2 of area for diffusion of the peptide, containing a donor compartment with a capacity of 1 mL and a recipient compartment with a capacity of 7 mL. To the recipient compartment, 7 mL of the biorelevant solution were added, in which the media selected by preliminary studies was 20 mM sodium acetate buffer pH 5.0+0.5% Tween® 20. […] The cells were placed in a thermostatic bath, with a temperature of 37° C.±0.5° C., with the goal to mimic the surface temperature. The bioreceptor medium was subjected to 350 rpm agitation. In times 0.5-, 1-, 2-, 4-, 6- and 24 h, collections of 1 mL were made from the recipient compartment, in order to measure the peptide content.

Data set [3] in a line: Second permeation test in Franz cells. Conditions: Strat-M membrane; applied in the FAPP20 buffer (20 mM sodium acetate buffer solution). The data set is classed as in vitro ADME. How it is done: In the first permeation assay, the physical barrier was the whole pig skin, which mimics the human stratum corneum. In the second permeation test, the physical barrier was the Strat-M membrane, which mimics the human stratum corneum.
as §1
In the first permeation assay, PnPP-19 was formulated with 6 μM of alpha cyclodextrin or with transcutol 15%.
Based on the release results described above, the 20 mM sodium acetate buffer pH 5.0+0.5% Tween® 20 was confirmed as the best receiving medium to be used in the permeation assay with Strat M membrane.

A short description of data set [4]: Biodistribution and pharmacokinetics after topical administration of radiolabeled PnPP-19 in FAPP20. In kind it is in vivo, rats. Here is the method: In order to evaluate the in vivo permeation of the peptide (and/or its fragments) in the formulation FAPP20, a biodistribution study was carried out in healthy rats. The peptide was radiolabeled with iodine [^131I] NaI using chloramine T method.
The study was conducted considering the dose of 5 mg/ml; and the maximum area of genital application. The final application volume was 100 μL that results in a dose of 2 mg/kg. The evaluation of biodistribution was carried out after the administration of a single dose of the peptide, applied topically to the skin of the penis after trichotomy of the rat's genital area.
Regarding biodistribution data, radiolabeled peptide concentrations were higher in skin, foreskin and SMC tissue at all times studied. In the first analyzed time, of 15 minutes, it was already possible to detect the peptide in the target tissues: the SMC layer, and the first layer of the skin, where the penile nerves are found (herein called of foreskin), showing that the peptide is rapidly absorbed into the skin. Within 30 minutes, its detection falls at the initial application site (skin), and increases in the foreskin, showing that it continues to be absorbed, and remains stable in the SMC layer. Within 60 minutes it is practically undetectable in tissues (FIG. 4).
For the pharmacokinetic (PK) study, the blood of the animals was collected at 0 h (predose), 15, 30 and 60 minutes, 3, 8 and 24 hours. All samples collected were quantified in a Wizard 3 gamma counter (PerkinElmer) for later calculation of the percentage of dose applied per gram of organ. […] While 42% of the applied dose is in the first layer of the skin, the peptide is detected in up to 18% in the SMC layer. Both peptide and its fragments were not found systemically (<1%) in the organs of choice (kidneys, testicles and epididymis) or in the blood, at any of the evaluated time-points, showing that the formulation remains in the application site, with no systemic absorption.

Data set [5] in a line: Phase 1 clinical study: pharmacokinetics. In kind it is in vivo, human. Particulars: 12 subjects. How it is done: Related to the pharmacokinetic analysis, the following outcomes were considered: detection of BZ371A, and its fragments, in the blood at the following collected times: pre-dose, 15, 30, 60, 180 and 360 minutes; if detected, determine the pharmacokinetic parameters: maximum concentration, half-life, area under the curve, clearance, volume of distribution.

Data set [6] deals with erectile function of healthy rats. Put plainly: Erectile function (ICP/MAP ratio) after ganglionic electrical stimulation. In kind it is in vivo, Sprague Dawley rats. Conditions: peptide topical 4 mg/Kg 15 min before; sildenafil SC 25 mg/Kg 30 min before; EFS 8 Hz; 0-45 min. The source says:
For this study, PnPP-19 was produced with TFA or Acetate as a counter-ion. Usually, peptides with TFA as a counter-ion are used in the preclinical stage of development; nevertheless, for safety purposes, the counter-ion is changed to acetate for clinical stage of development. […] Also, to compare if the counter-ion exchange would impact the biological effect of PnPP-19, two peptide batches was produced: one with the counter-ion TFA and another with the counter-ion Acetate. Sildenafil was used as a positive control (subcutaneously administration).
(§2) Erectile function was evaluated by means of the intracavernosal pressure/mean arterial pressure (ICP/MAP) ratio at 4 different times (0, 15, 30 and 45 minutes) after application of ganglionic electrical functional stimulus (EFS) of 8 Hz.
(§3) The formulated peptide (both with TFA counter-ion and Acetate) was applied topically to the penis of the rats 15 minutes before ICP/MAP measurements, at a dose of 1000 μg diluted in 200 μL of the formulation (dose of 4 mg/Kg), reaching a concentration of 5 mg/mL or 0.5% w/v of the peptide in the formulation. Sildenafil was applied SC, at a dose of 25 mg/Kg (1 mL/Kg) 30 minutes before ICP/MAP measurements.

A short description of data set [7]: Mean arterial pressure and dermal irritation in the erectile function study. The data set is classed as in vivo, Sprague Dawley rats. Particulars: for MAP: mean ± standard deviation. How it is done:
as §2, §3

On to Ac-GERRQYFWIAWYKLANSKK-NH2 [PnPP-19], for which, in data set [1], the pKa – broadly, the negative logarithm of the acid dissociation constant – came to 12.4. Besides, the “quantification of PnPP-19 in the receptor media (controls)” value in data set [2] is on record as “can be quantified in the receptor media”. For the same compound, the “detection of PnPP-19 in the receptor compartment (control)” value in data set [3] is “detected in the receptor compartment since initial time (0.5 h)”. In data set [4] (15 minutes after topical application to rat penis, normalized), the “applied dose/gram found in CC tissue (SMC layer)” value is reported as “up to 18%”. The “applied dose/gram found in the skin” value in data set [4] (15 minutes after topical application to rat penis, normalized to total in all tissues) is reported as 42%. The “peptide and fragments found systemically (kidneys, testicles, epididymis, blood)” value in data set [4] (any of the evaluated time-points up to 24 hours) is on record as less than 1%. Also, in data set [5] (no detectable concentrations, limit of detection=40 ng/ml), the “plasma concentrations of BZ371A fragments” value is less than 40 ng/mL. Further, the “plasma concentrations of BZ371A” value in data set [5] (no quantifiable concentrations, LIQ=50 ng/ml, pre-dose to 360 minutes) was less than 50 ng/mL.
On to `CCCc1nn(C)c2c(=O)[nH]c(-c3cc(S(=O)(=O)N4CCN(C)CC4)ccc3OCC)nc12` [Sildenafil, sildenafil], for which the “erectile function (ICP/MAP ratio) compared to negative control (vehicle)” value in data set [6] was “not superior to the negative control group”. For the same compound, the MAP in data set [7] (0 min) is 87 ± 10 (**) mmHg; in data set [7] (15 min), 93 ± 8 (*) mmHg; in data set [7] (30 min), 93 ± 8 (***) mmHg; in data set [7] (45 min), 94 ± 7 (***) mmHg. Besides, the “effect on MAP / systemic hypotension compared to vehicle” value in data set [7] (rats) was “significant decrease in MAP”.
